Series [1] is described as follows: Reduction of nitroxides with ascorbate in the presence of glutathione (EPR kinetics). The format is physicochemical. To be noted: nitroxide 0.3–0.4 mM, ascorbate 100–300 mM, 50 mM phosphate buffer, pH 7.4, 25 °C, glutathione 2 mM. Here is the method:
The EPR spectra in water were recorded on a Bruker ER-200D-SRC spectrometer in 50 µL glass capillary for 0.2–0.4 mM radical solutions degassed via bubbling with argon. Spectrometer settings: frequency, 9.87 GHz; microwave power, 5.0 mW; modulation amplitude, 0.05 mT; time constant, 50–100 ms; and conversion time, 5.12 ms. […] All the solutions were deoxygenated with argon, carefully and quickly mixed in a small tube to attain final concentrations (nitroxide, 0.2–04 mM; GSH, 2 mM; and ascorbate, 100–300 mM) and were placed into an EPR capillary (50 μL). The capillary was sealed on both sides and placed into the EPR resonator. The decay of amplitude of the low-field component of the EPR spectrum was followed to obtain the kinetics. The initial part of the decay curves (up to 200 min) was used for fitting. Kinetics of the decay was fitted to a monoexponential function to calculate the first-order rate constants. Then, these constants were divided by the concentration of ascorbic acid to calculate the second-order reaction constants (Figure S3). Partition coefficients in a water–octanol mixture were estimated from the amplitudes of the EPR spectra of a nitroxide in water after extensive shaking with different portions of added octanol and separation using centrifugation.

A short description of series [2]: Partition coefficient octanol/water estimated from EPR amplitudes. The class given is physicochemical. To be noted: ratio of concentrations in octanol to water; distilled water. Here is the method: The EPR spectra in water were recorded on a Bruker ER-200D-SRC spectrometer in 50 µL glass capillary for 0.2–0.4 mM radical solutions degassed via bubbling with argon. Spectrometer settings: frequency, 9.87 GHz; microwave power, 5.0 mW; modulation amplitude, 0.05 mT; time constant, 50–100 ms; and conversion time, 5.12 ms. For kinetic measurements in water, stock solutions of nitroxide, ascorbic acid and glutathione in phosphate buffer (5 mM, pH 7.4) were prepared, and pH was adjusted to 7.4 with NaOH or HCl. All the solutions were deoxygenated with argon, carefully and quickly mixed in a small tube to attain final concentrations (nitroxide, 0.2–04 mM; GSH, 2 mM; and ascorbate, 100–300 mM) and were placed into an EPR capillary (50 μL). The capillary was sealed on both sides and placed into the EPR resonator. The decay of amplitude of the low-field component of the EPR spectrum was followed to obtain the kinetics. The initial part of the decay curves (up to 200 min) was used for fitting. Kinetics of the decay was fitted to a monoexponential function to calculate the first-order rate constants. Then, these constants were divided by the concentration of ascorbic acid to calculate the second-order reaction constants (Figure S3). Partition coefficients in a water–octanol mixture were estimated from the amplitudes of the EPR spectra of a nitroxide in water after extensive shaking with different portions of added octanol and separation using centrifugation.

On the set-up of series [3]: method as in PMID 25348344. To be noted: cited from earlier work.
The conditions of series [4]: literature value, cited from earlier work.
Series [5] can be described thus: Decay of nitroxides in tissue homogenates (brain, kidney, liver, heart; EPR). The class given is in vitro ADME, mice. To be noted: nitroxide 0.2 mM. Here is the method: (§1) The measurements of kinetics of nitroxide decay in blood and tissue homogenates were performed using an Elexsys E540 X-band spectrometer in a 50 µL glass capillary for 0.2 mM solutions, with the following spectrometer settings: frequency, 9.87 GHz; centerfield, 350.6 mT; sweep range, 10 mT; microwave power, 2.0 mW; modulation amplitude, 0.1 mT; time constant, 10.24 ms; and conversion time, 20.48 ms.
(§2) The stock solutions of the nitroxides 25 and 31 in water ([…]) were prepared, and pH was adjusted to 7.0 with NaOH. A total of 2 μL of the nitroxide solution was added to 98 μL of the blood or tissue homogenate, giving a nitroxide concentration equal to 0.2 mM. The resulting mixture of nitroxide with blood or tissue homogenate was transferred to the glass capillary (50 μL) and the latter was placed into the EPR resonator. The decay of the double integral of the EPR spectrum was followed to obtain the kinetics.
Male five-month-old C57BL/6 mice were obtained from the Breeding Experimental Animal Laboratory of the Institute of Cytology and Genetics (ICG), Siberian Division of the Russian Academy of Sciences (Novosibirsk, Russia). All the experiments were carried out according to Animal Care Regulations of the Institute of Cytology and Genetics (ICG), Novosibirsk. […]

Series [6] is described as follows: Decay of nitroxides in murine blood (EPR). The format is in vitro ADME, mice. To be noted: nitroxide 0.2 mM. Here is the method: as §1, §2
Male five-month-old C57BL/6 mice were obtained from the Breeding Experimental Animal Laboratory of the Institute of Cytology and Genetics (ICG), Siberian Division of the Russian Academy of Sciences (Novosibirsk, Russia). All the experiments were carried out according to Animal Care Regulations of the Institute of Cytology and Genetics (ICG), Novosibirsk. Animals were sacrificed by decapitation, blood was collected into a microcentrifuge tube with heparin (final concentration 5%), gently rocked by hand and snap-frozen with liquid nitrogen immediately after collection. Organ tissue (brain, heart, liver and kidney) was excised on ice, rinsed with ice-cold 10 mM PBS (pH 7.4), sheared with scissors and homogenized in PBS (1/1 by weight) on ice using electric homogenizer fitted with a Teflon head. The homogenates were then additionally mixed with PBS (1/1 by weight, final dilution 1/3) to decrease viscosity for further aspiration into glass capillaries, and snap-frozen in liquid nitrogen. […]

Where two headings read alike, the source gives them in different places.

`CCC1=[N+]([O-])C(CC)(CC)C(C(=O)O)C1` (stereo not shown) [Nitroxide 8, 3-Carboxy-2,2,5-triethyl-3,4-dihydro-2H-pyrrole 1-oxide] displayed a melting point of 145 to 146 °C.
With `CCC1(CC)CC(CN2CCCCC2)C(CC)(CC)N1[O]` (stereo not shown) [Nitroxide 30, 3-((Piperidin-1-yl)methyl)-2,2,5,5-tetraethylpyrrolidine-1-oxyl], the “kred × 10^4 (second-order rate constant for the initial rate of reduction with ascorbate)” value in series [1] came out at 2.2 ± 0.5 M^−1 s^−1. The “Kp (partition coefficient octanol/water)” value in series [2] is 30.
As for `CCC1(CC)CC(C(=O)OC)C(CC)(CC)N1O.Cl` (stereo not shown), the melting point lay within 148 to 150 °C.
With `CCC1(CC)CC(C(=O)O)C(CC)(CC)N1[O]` (stereo not shown) [Nitroxide 1, 3-Carboxy-2,2,5,5-tetraethylpyrrolidine-1-oxyl], in series [3], the “Decay in cytosolic extract compared with trityl radical” value is on record as “slower decay in cytosolic extract than trityl radical”. For the same compound, the “kred × 10^4 (second-order rate constant of reduction with ascorbate)” value in series [4] (ref 9) was 20 ± 10 M^−1 s^−1; in series [4] (ref 14), no more than 10 M^−1 s^−1; in series [4] (ref 45), 12.5 ± 0.3 M^−1 s^−1. In addition, the “kred × 10^4 (second-order rate constant for the initial rate of reduction with ascorbate)” value in series [1] is 3.3 ± 0.5 M^−1 s^−1. In addition, the “Kp (partition coefficient octanol/water)” value in series [2] is 270.
Consider `CCC1(CC)CC(CNC(=O)CN2CCCC2)C(CC)(CC)N1[O]` (stereo not shown) [Nitroxide 29, 3-(2-(Pyrrolidin-1-yl)acetamidomethyl)-2,2,5,5-tetraethylpyrrolidine-1-oxyl], for which, in series [1], the “kred × 10^4 (second-order rate constant for the initial rate of reduction with ascorbate)” value turned out to be 2.5 ± 0.4 M^−1 s^−1. For the same compound, the “Kp (partition coefficient octanol/water)” value in series [2] is 70.
As for “3-(2-Triphenylphosphonio)acetamidomethyl-2,2,5,5-tetraethylpyrrolidine-1-oxyl chloride [Nitroxide 28]”, the “Decay in homogenate of brain” value in series [5] (mouse brain homogenate) is reported as “Faster decay of 28 as compared to 22”. In addition, in series [5] (mouse liver homogenate), the “Decay in homogenate of liver” value is listed as “Faster decay of 28 as compared to 22”. Further, the “kred × 10^4 (second-order rate constant for the initial rate of reduction with ascorbate)” value in series [1] is listed as 2.4 ± 0.4 M^−1 s^−1. Moreover, the “Kp (partition coefficient octanol/water)” value in series [2] is on record as 13. The “Time to plateau of decay in blood” value in series [6] is recorded as 10 min. For the same compound, the “Decrease of concentration in blood” value in series [6] (plateaus in 10 min) is “ca. 10%”.
Turning to `CCC1(CC)CC(C(=O)O)C(CC)(CC)N1` (stereo not shown) [Nitroxide 15, 3-Carboxy-2,2,5,5-tetraethylpyrrolidine], the melting point lay in the range of 113 to 114 °C.
On to `CCC1(CC)CC(CN)C(CC)(CC)N1[O]` (stereo not shown) [Nitroxide 22, 3-Aminomethyl-2,2,5,5-tetraethylpyrrolidine-1-oxyl], for which the “kred × 10^4 (second-order rate constant for the initial rate of reduction with ascorbate)” value in series [1] is given as 4.1 ± 0.2 M^−1 s^−1. Moreover, the “Kp (partition coefficient octanol/water)” value in series [2] is listed as 5.5. The “Decay in blood (in words)” value in series [6] (30 min) was “No decay”.

The term melting point denotes the temperature, or range, at which the solid turns liquid.

The record behind these values is paper PMC8510269, “A Simple Method of Synthesis of 3-Carboxy-2,2,5,5-Tetraethylpyrrolidine-1-oxyl and Preparation of Reduction-Resistant Spin Labels and Probes of Pyrrolidine Series” (Molecules, 2021).
